# Assay results: a melting point compilation (Tetko et al.; mined from patent text by program, amines drawn as free bases though some values may be those of a salt)
row,melting point,Compound
1,182 to 184 °C,CNC1=NS(=O)(=O)N=C1NCCCOc1cccc(CN2CCCCC2)c1
2,> 150 °C,Nc1c(NC2CCc3ccccc32)[nH]c(=O)[nH]c1=O (stereo unspecified)
3,206 to 207 °C,Cc1cccc(Cl)c1-n1[nH]c(C(C)C)c2c(=O)nc(Cc3ccc(N)cc3)nc1-2
4,69 to 70 °C,O=S(=O)(Nc1c(F)c(F)nc(F)c1F)C(F)(F)F
5,226 to 228 °C,COc1cc2c3c(cccc3c1OC)C(=O)N(O)C2=O
6,103 to 105 °C,CC(=O)N1C(C(=O)NCCO[N+](=O)[O-])CSC1c1ccccc1 (stereo unspecified)
7,232 to 233 °C,CCSCC#Cc1cc(F)c2ncc(C(=O)NCc3ccc(Cl)cc3)c(O)c2c1
8,175 to 176 °C,CN(C)C=C(C#N)C(=O)Nc1cc(Cl)ccc1Cl
9,163 to 165 °C,CNC(=O)c1ccc(-c2ccc(NC(=O)NCc3cccnc3)cc2)nc1NCCN(C)C
10,253 to 255 °C,O=C(O)COc1c[nH]cc(Cl)c1=O
11,111 to 113 °C,CC(C)n1nc(-c2sc(NC(=O)c3ccc(CNCCO)cc3)nc2-c2ccccc2)ccc1=O
12,154 to 156 °C,O=C(c1ccc(N2CCCC2)cc1)C1CCN(Cc2ccccc2)CC1
13,140 to 145 °C,O=C1NC(=O)c2c1c(-c1ccccc1Cl)cc1oc3ccc(O)cc3c21
14,169 to 171 °C,O=C1NCc2c(Cl)nc3ccccc3c21
15,246 to 248 °C,CC1(C)OC(=O)Nc2c(F)cc(-c3ccc(F)c(Cl)c3)cc21
16,85 to 86 °C,c1ccc(COC[C@H]2OC(Sc3ccccc3)[C@H](OCc3ccccc3)[C@@H](OCc3ccccc3)[C@@H]2OCc2ccccc2)cc1 (stereo partly specified)
17,141 to 142 °C,CNC(=O)N(N)c1nnc(C(C)(C)C)s1
18,118 to 120 °C,COCCc1ncc(CO)c(NCc2ccc(-c3ccccc3-c3nnnn3C(c3ccccc3)(c3ccccc3)c3ccccc3)cc2)n1
19,105 to 106 °C,CN(Cc1cc(C(F)(F)F)cc(C(F)(F)F)c1)C(=O)c1cnc2ccc(Cl)cc2c1-c1ccccc1
20,155 °C,CCCCc1nc(C(=O)O)c(S(=O)(=O)c2ccccc2)n1Cc1ccc(-c2ccccc2C(=O)O)cc1
21,157 to 158 °C,CCOC(=O)C1C(=O)CC(C)(O)C(C(=O)OCC)C1c1cc(OC)c2oc(C)c(C)c2c1 (stereo unspecified)
22,96 to 97 °C,Cc1cc(C)cc(COC(=O)C(Cc2c[nH]c3ccccc23)NS(C)(=O)=O)c1 (stereo unspecified)

row,melting point,Compound
1,267 to 269 °C,Cc1ccccc1NC(=O)c1ccccc1C(c1ccc(O)cc1)c1ccc(O)cc1
2,233 to 234 °C,CCOc1ccc(-c2nc(-c3cc(C(=O)O)c(O)cc3O)cs2)cc1OCC
3,228 to 229 °C,O=C(O)c1cc(-c2cccc(C(F)(F)F)c2)c(=O)n2ccccc12
4,110 to 112 °C,Cc1cc(F)ccc1-c1cc(-c2ccccc2)nc(C(C)C)c1C=O
5,125 to 127 °C,COc1cc2oc(=O)c(CCCl)c(C)c2cc1OC(C)C
6,138 to 144 °C,O=C1CC(c2c(-c3ccc[nH]3)[nH]c3ccc(Cl)cc23)C(=O)N1 (stereo unspecified)
7,184 °C,CC(C)(C)OC(=O)N1CCN(c2ccc(N3C[C@H](CN)OC3=O)cc2F)CC1
8,109 to 111 °C,CCCn1cc(Cc2ccc(C(=O)OC)cc2OC)c2cc(CCC(=O)O)ccc21
9,277 to 279 °C,Cc1nc2c(c(=O)[nH]1)-c1ccc(Cl)cc1C(c1ccccc1Cl)=NC2
10,36 to 38 °C,CS(=O)(=O)OCCOc1ccccc1OCC(F)(F)F
11,50 °C,CC(C)(C)C(=O)C(Oc1ccc(Cl)cc1)c1cccnc1 (stereo unspecified)
12,195 to 196 °C,CC(=O)Oc1c(C(C)C)cc(C(=O)Nc2cnc3c(C)cc(C)cc3c2-c2ccccc2Cl)cc1C(C)C
13,168 to 170 °C,CC(=O)NC[C@H]1CN(c2ccc(N3C[C@H]4CN(C(C)=O)C[C@H]4C3)c(F)c2)C(=O)O1
14,240 to 244 °C,Cc1[nH][nH]c(=O)c1Cc1ccc2ccccc2c1
15,94 to 95 °C,C=CC(=O)NCCOC(C)(C)OCCNC(=O)C=C
16,123 to 126 °C,Cc1ccccc1Nc1nc2ccc(CC(=O)Nc3ccc(C4(CC(=O)O)CCCC4)cc3)cc2o1
17,134 to 136 °C,Cc1cccc(C)c1C(=O)NC(C)(C)C
18,90 to 100 °C,CCCCC12CCC3=C(CCc4cc(OC)ccc43)C1CCC2O (stereo unspecified)
19,189 to 192 °C,Cc1ccc2c(c1F)N(C1CC1)C=NS2(=O)=O
20,86 to 87 °C,CCOC(=O)c1cccc(Cc2ccc3ccccc3c2O)c1
21,110 to 111 °C,CCOP(=O)(/C=C/c1cn(-c2ccccc2)nc1OCc1ccc(OCc2nc(-c3ccccc3)sc2C)c(OC)c1)OCC
22,144 to 146 °C,CN1CC(CCN2CCN(c3ccccc3)CC2)c2nc3ccccc3n2C1=O (stereo unspecified)

row,melting point,Compound
1,69 to 70 °C,OCCNC(c1ccccc1)c1ccccc1
2,202 to 205 °C,CC(C)n1c(=S)nc(-c2ccccc2)c2cc3c(cc21)OCO3
3,186 to 190 °C,O=c1c2c(oc3ncccc13)-c1ccccc1CCC2
4,230 to 232 °C,NC(=O)c1ccc(-c2ccc3nnn(Cc4ccc5ncccc5c4)c3n2)cc1C(F)(F)F
5,134 to 138 °C,CCOC(=O)NN=C(c1ccc(Cl)cc1)c1ccc(OS(=O)(=O)c2ccc([N+](=O)[O-])cc2)cc1
6,144 °C,O=c1[nH]c2cc(F)ccc2n(C(c2ccccc2)c2ccccc2)c1=O
7,> 300 °C,CS(=O)(=O)Nn1c(=O)[nH]c2cc([N+](=O)[O-])c(-n3cnc(CO)c3)cc2c1=O
8,124 to 126 °C,COc1ccc2c(c1)c(Cc1cc(=O)n(-c3cccc(NC(C)=O)c3)[nH]1)c(C)n2C(=O)c1ccc(Cl)cc1
9,150 to 152 °C,CCCCc1nc2c(N)nc(C)c(C)c2n1CC(C)(C)NC(=O)c1ccccc1
10,215 to 217 °C,O=C(O)COc1cccc2c1CC(S(=O)(=O)Cc1ccccc1)c1sc(-c3cccc(F)c3)nc1-2 (stereo unspecified)
11,190 to 193 °C,Nc1nc(O)c2c(CCCc3ccc(C(=O)N[C@@H](CCC(=O)O)C(=O)O)cc3)cnc-2[nH]1
12,176 to 177 °C,O=S(=O)(C(/C=C/c1ccc(Br)cc1)c1c(F)c(F)c(F)c(F)c1F)C(/C=C/c1ccc(Br)cc1)c1c(F)c(F)c(F)c(F)c1F (stereo unspecified)
13,119 °C,COc1ccc(CN(C)CCc2ccc(NC(=O)c3cccc4c(=O)c5cccc(C)c5[nH]c34)cc2)cc1OC
14,98 to 100 °C,CC1OC(Sc2ccccc2)C(OCc2ccccc2)C(OC(=O)c2ccccc2)C1OC(=O)c1ccccc1 (stereo unspecified)
15,179 to 181 °C,COc1ccc(-n2nc(-c3ccccc3O)nc2-c2ccccc2O)cc1
16,212 to 215 °C,O=C(Nc1ccc(C(=O)N2Cc3ccccc3Cc3ccccc32)cc1)c1ccc(Cl)c(Cl)c1
17,213 to 214 °C,CC1(C)CC1C(=O)Nc1ccc(C2=NNC(=O)CC2)cc1 (stereo unspecified)
18,292 °C,NS(=O)(=O)c1ccc(-c2noc(-c3cnc4c(C(F)(F)F)cc(-c5ccc(C(F)(F)F)cc5)cn34)n2)cc1
19,172 to 174 °C,O=c1c2cc(F)c(N3CCCC3)nc2n(-c2ccc(F)cc2)c(=O)n1O
20,177 to 179 °C,COC(=O)C1=C(C)NC(C)=C(C(=O)OC)C1C1CCC(C(=O)O)C1 (stereo unspecified)
21,99 to 100 °C,CC1=CC(O)C(OC(=O)c2ccccc2)C(C)(C)CC1=O (stereo unspecified)
22,85 to 86.5 °C,O=c1oc(-c2cccc(C(F)(F)F)c2)ns1

row,melting point,Compound
1,266 to 267 °C,Cn1c(-c2cc(O)c3c(c2)C(=O)c2cccc(O)c2C3=O)nc2ccccc21
2,171 to 173 °C,CCOC(=O)c1c(C(=O)O)c2c(OCc3ccccc3)ccc3c(CC)c(-c4ccc(OCc5ccccc5)cc4)c1n32
3,102 to 104 °C,CCSC1C(=O)N=C(NC(=O)Nc2cccc(Cl)c2)N1C (stereo unspecified)
4,190 to 191 °C,Oc1ccc(CNc2ncncc2Cl)cc1
5,134 °C,O=C1C(c2ccccc2)=C(c2c(Cl)cccc2Cl)C(=O)N1c1ccc(Cl)cc1
6,89 to 91 °C,CC(=O)n1nc(C)c2ccc(F)cc21
7,206 °C,O=C(C=Cc1ccc(CO)cc1)N1CCc2c([nH]c3ccccc23)C1c1ccc2c(c1)OCO2 (stereo unspecified)
8,88 to 89 °C,CCOC(=O)c1noc(-c2ccc(Cl)cc2)n1
9,90 °C,CC(=O)SC(CC(=O)c1ccccc1)C(=O)O (stereo unspecified)
10,156 to 157 °C,O=c1nc(-c2cccc(CN3CCN(c4ccc(F)cc4)CC3)n2)sc2ccccc12
11,95 to 99 °C,CCNc1nc(SC)ncc1CNc1c(F)c(OC)cc(OC)c1F
12,176 to 178 °C,CS(=O)(=O)Nc1ccc(CCNC(=O)c2cc3cc(O)ccc3cc2O)cc1
13,145 °C,CCCCCCCCOc1ccc(-c2ccc(O)c(F)c2F)cc1
14,100 to 102 °C,CCCCOC(=O)Oc1cc(-n2c(OCC)nc(C(F)(F)F)cc2=O)c(F)cc1Cl
15,127 to 129 °C,COc1cc(C(=O)c2ccccc2F)cc([N+](=O)[O-])c1O
16,108 to 110 °C,CCN1C(=O)c2cccnc2N(CC)c2ccccc21
17,189 to 191 °C,O=C(C=Cc1cncc(O)c1)NCCCN1CCN(C(c2ccccc2)c2ccccc2)CC1
18,86 to 87 °C,COC(=S)OC(C(=O)O)c1ccccc1 (stereo unspecified)
19,62 to 64 °C,CCOC(=O)Cc1ccc2c(c1)sc1c(Cl)cccc12
20,55 to 56 °C,COc1ccc(-c2ccccc2[N+](=O)[O-])cc1
21,163 to 164 °C,CC(C)Cn1nc(-c2ccc(F)c(F)c2)cc(C(=O)O)c1=O

row,Compound,melting point
1,CCOC(=O)c1nn(Cc2ccc(Cl)cc2C)c2ccccc12,120 to 122 °C
2,CN1[C@H]2CC[C@@H]1[C@H](C=O)[C@@H](c1ccc(Cl)c(Cl)c1)C2,131 to 135 °C
3,CC(=O)Nc1cc([C@H](O)CN[C@H](C)Cc2ccc(O)cc2)ccc1O,97 to 100 °C
4,CCCCn1cc(C(=O)Nc2nccs2)c2ccc(Cl)cc21,168 to 169 °C
5,Nc1cc(OCc2ccccc2)c(C(=O)NC2CN3CCC2CC3)cc1Cl (stereo unspecified),170 to 171 °C
6,CC[C@H]1CNCC[C@H]1CCc1c[nH]c2ccccc12,150 °C
7,COc1cccc(NC(=O)NC2N=C(c3ccccc3F)c3ccccc3N(C)C2=O)c1 (stereo unspecified),271 to 273 °C
8,N#CC(=NO)c1c(F)cccc1Cl,119 to 120 °C
9,CCOC12CCC(=O)CC13CCN(C)C2Cc1ccc(OC)cc13 (stereo unspecified),171 to 173 °C
